From patent US8778939B2, “Compounds” (Glaxo Group Limited, priority 2009, dated 2014)

Biological target: T1, 6His-Tev-LRRK2 (1326-2527) (Homo sapiens, UniProt Q5S007)
T1 construct: A LRRK2 cDNA encoding residues 1326-2527 was received from Dundee University; made in house; host or cells: Spodoptera frugiperda (Sf9) insect cells, baculovirus
T1 sequence (Q5S007 1326-2527): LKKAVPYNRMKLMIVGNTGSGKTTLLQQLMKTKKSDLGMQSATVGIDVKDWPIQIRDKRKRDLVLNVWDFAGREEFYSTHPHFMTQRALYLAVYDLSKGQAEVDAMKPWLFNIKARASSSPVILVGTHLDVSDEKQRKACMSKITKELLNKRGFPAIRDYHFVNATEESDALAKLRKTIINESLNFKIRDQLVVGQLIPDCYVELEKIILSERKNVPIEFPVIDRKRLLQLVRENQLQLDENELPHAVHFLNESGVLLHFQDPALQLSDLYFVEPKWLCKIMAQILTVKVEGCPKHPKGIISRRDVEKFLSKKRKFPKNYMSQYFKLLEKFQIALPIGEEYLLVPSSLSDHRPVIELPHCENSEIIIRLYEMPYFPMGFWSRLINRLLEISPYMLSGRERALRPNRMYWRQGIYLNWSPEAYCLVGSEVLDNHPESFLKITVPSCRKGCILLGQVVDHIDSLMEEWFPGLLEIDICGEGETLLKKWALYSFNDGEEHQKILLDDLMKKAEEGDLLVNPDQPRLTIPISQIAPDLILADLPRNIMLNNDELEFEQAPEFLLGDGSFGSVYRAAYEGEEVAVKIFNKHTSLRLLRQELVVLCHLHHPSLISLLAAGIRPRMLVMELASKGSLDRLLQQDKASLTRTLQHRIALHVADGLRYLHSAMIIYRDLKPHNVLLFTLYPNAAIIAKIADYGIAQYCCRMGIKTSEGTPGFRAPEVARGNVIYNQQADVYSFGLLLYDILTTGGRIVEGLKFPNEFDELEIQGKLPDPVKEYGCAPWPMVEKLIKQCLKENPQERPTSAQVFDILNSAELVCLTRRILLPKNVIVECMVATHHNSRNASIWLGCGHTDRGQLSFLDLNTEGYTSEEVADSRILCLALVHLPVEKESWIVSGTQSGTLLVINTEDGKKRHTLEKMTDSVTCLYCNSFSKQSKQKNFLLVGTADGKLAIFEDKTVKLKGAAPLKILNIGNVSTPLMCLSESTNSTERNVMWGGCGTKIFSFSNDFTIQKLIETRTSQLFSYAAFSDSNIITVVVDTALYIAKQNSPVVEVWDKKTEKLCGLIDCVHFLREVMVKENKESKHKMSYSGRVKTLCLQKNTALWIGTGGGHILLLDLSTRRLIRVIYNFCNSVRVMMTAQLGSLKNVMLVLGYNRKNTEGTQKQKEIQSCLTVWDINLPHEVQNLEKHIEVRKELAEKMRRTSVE
Assay: LRRK2 peptide substrate assay
Type: biochemical
Conditions: Biotin-LRRKtide peptide substrate, ATP at Km; read-out: pIC50 in the LRRK2 peptide substrate assay (converted)
Summary of the method: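 Recombinant 6His-Tev-LRRK2 (1326-2527), 80 nM in enzyme solution, in pH 7.2 Hepes/MgCl2 buffer with DTT; compounds in 1:4 serial dilution from 30 μM top final. Reaction 1-2 h at room temperature, stopped with EDTA; phospho-moesin (Thr558) antibody with Eu/APC TR-FRET detection after 2 h (ex 330, em 620/665 nm).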

SMILES | IC50
N#Cc1cccc(COc2ccc(Br)cc2C(=O)Nc2cccnc2)c1 [Example 15, 5-Bromo-2-{[(3-cyanophenyl)methyl]oxy}-N-3-pyridinylbenzamide] | ≤ 100 nM
O=C(Nc1cccnc1)c1cc(Br)ccc1OCc1cccc(Cl)c1 [Example 13, 5-Bromo-2-{[(3-chlorophenyl)methyl]oxy}-N-3-pyridinylbenzamide] | ≤ 100 nM
CC(C)c1ccc(OCc2ccccc2)c(C(=O)Nc2cccnc2)c1 [Example 1, 5-(1-Methylethyl)-2-[(phenylmethyl)oxy]-N-3-pyridinylbenzamide] | ≤ 100 nM
O=C(Nc1cccnc1)c1cc(Br)ccc1OCc1ccccc1 [Example 2, 5-Bromo-2-[(phenylmethyl)oxy]-N-3-Pyridinylbenzamide] | ≤ 100 nM
N#Cc1ccc(OCc2ccccc2)c(C(=O)Nc2cccnc2)c1 [Example 8, 5-Cyano-2-[(phenylmethyl)oxy]-N-3-pyridinylbenzamide] | ≤ 100 nM

More lines, now with the values ahead:

IC50 | SMILES
≤ 100 nM | O=C(Nc1cccnc1)c1cc(N2CCCCC2)ccc1OCc1ccccc1 [Example 33, 2-[(Phenylmethyl)oxy]-5-(1-piperidinyl)-N-3-pyridinylbenzamide]
≤ 10 nM | CN1CCN(c2ccc(OCc3ccccc3)c(C(=O)Nc3cccnc3)c2)CC1 [Example 32, 5-(4-Methyl-1-piperazinyl)-2-[(phenylmethyl)oxy]-N-3-pyridinylbenzamide]
≤ 100 nM | CN(C)CCOc1ccc(OCc2ccccc2)c(C(=O)Nc2cccnc2)c1 [Example 30, 5-{[2-(Dimethylamino)ethyl]oxy}-2-[(phenylmethyl)oxy]-N-3-pyridinylbenzamide]
≤ 100 nM | CN1CCC(Oc2ccc(OCc3ccccc3)c(C(=O)Nc3cccnc3)c2)CC1 [Example 31, 5-[(1-Methyl-4-piperidinyl)oxy]-2-[(phenylmethyl)oxy]-N-3-pyridinylbenzamide]
≤ 100 nM | O=C(Nc1cccnc1)c1cc(O)ccc1OCc1ccccc1 [Example 29, 5-Hydroxy-2-[(phenylmethyl)oxy]-N-3-pyridinylbenzamide]

Biological target: T1, 6His-Tev-LRRK2 (1326-2527)
Assay: LRRK2 AlphaScreen desensitised protein substrate assay
Type: biochemical
Conditions: excess of ATP present (2 mM ATP); read-out: pIC50 in the LRRK2 alphascreen desensitised protein substrate assay (converted)
Summary of the method: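 Purified 6His-Tev-LRRK2 (1326-2527), 80 nM in enzyme solution, in pH 7.2 Hepes buffer with MgCl2 and DTT; compound 1:4 dilutions, top final 30 μM. ATP 2 mM in substrate solution, 20 min at room temperature. Phospho-ERM (Thr567/564/558) detected by AlphaScreen.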

SMILES | IC50
O=C(Nc1cccnc1)c1cc(N2CCCCC2)ccc1OCc1ccccc1 [Example 33, 2-[(Phenylmethyl)oxy]-5-(1-piperidinyl)-N-3-pyridinylbenzamide] | ≤ 20000 nM
N#Cc1cccc(COc2ccc(Br)cc2C(=O)Nc2cccnc2)c1 [Example 15, 5-Bromo-2-{[(3-cyanophenyl)methyl]oxy}-N-3-pyridinylbenzamide] | > 25100 nM
CN1CCN(c2ccc(OCc3ccccc3)c(C(=O)Nc3cccnc3)c2)CC1 [Example 32, 5-(4-Methyl-1-piperazinyl)-2-[(phenylmethyl)oxy]-N-3-pyridinylbenzamide] | ≤ 20000 nM
CN(C)CCOc1ccc(OCc2ccccc2)c(C(=O)Nc2cccnc2)c1 [Example 30, 5-{[2-(Dimethylamino)ethyl]oxy}-2-[(phenylmethyl)oxy]-N-3-pyridinylbenzamide] | ≤ 20000 nM
O=C(Nc1cccnc1)c1cc(Br)ccc1OCc1cccc(Cl)c1 [Example 13, 5-Bromo-2-{[(3-chlorophenyl)methyl]oxy}-N-3-pyridinylbenzamide] | > 25100 nM
CC(C)c1ccc(OCc2ccccc2)c(C(=O)Nc2cccnc2)c1 [Example 1, 5-(1-Methylethyl)-2-[(phenylmethyl)oxy]-N-3-pyridinylbenzamide] | ≤ 20000 nM
O=C(Nc1cccnc1)c1cc(Br)ccc1OCc1ccccc1 [Example 2, 5-Bromo-2-[(phenylmethyl)oxy]-N-3-Pyridinylbenzamide] | ≤ 20000 nM
CN1CCC(Oc2ccc(OCc3ccccc3)c(C(=O)Nc3cccnc3)c2)CC1 [Example 31, 5-[(1-Methyl-4-piperidinyl)oxy]-2-[(phenylmethyl)oxy]-N-3-pyridinylbenzamide] | ≤ 20000 nM
O=C(Nc1cccnc1)c1cc(O)ccc1OCc1ccccc1 [Example 29, 5-Hydroxy-2-[(phenylmethyl)oxy]-N-3-pyridinylbenzamide] | ≤ 20000 nM
N#Cc1ccc(OCc2ccccc2)c(C(=O)Nc2cccnc2)c1 [Example 8, 5-Cyano-2-[(phenylmethyl)oxy]-N-3-pyridinylbenzamide] | ≤ 20000 nM

Biological target: T1, 6His-Tev-LRRK2 (1326-2527)
Assay: LRRK2 AlphaScreen protein substrate assay
Type: biochemical
Conditions: GST-PS-Moesin (400-577) substrate, ATP at Km; read-out: pIC50 in the LRRK2 alphascreen protein substrate assay (converted)
Protocol: a) 100 nl of a 1:4 serial dilution of test compound with a top final assay concentration of 30 μM is added to certain wells in a low volume 384 well black plate. 100 nl of DMSO is used in certain wells as controls.
b) 3 μl enzyme solution (80 nM purified recombinant 6His-Tev-LRRK2 (1326-2527) in assay buffer: 50 mM Hepes (pH 7.2), 10 mM MgCl2, 150 mM NaCl, 5% glycerol, 0.0025% triton X-100 and 1 mM DTT) is added to certain wells.
Plates are then incubated for a further 1-2 hours at room temperature (incubation time varies depending upon rate and linearity of reaction with differing enzyme batches).
d) 6 μl detection solution (1:250 dilution of AlphaLisa Protein A Acceptor beads (PerkinElmer), 1:64 dilution of AlphaLisa Gluthathione Donor beads (PerkinElmer) and 1:600 dilution (dilution determined on a batch to batch basis) of Phospho-Ezrin (Thr567)/Radixin (Thr564)/Moesin (Thr558) Polyclonal Antibody (New England Biolabs) in a buffer: 50 mM Hepes (pH 7.5), 250 mM NaCl, 60 mM EDTA, 1% PEG and 0.01% Brij 35) is added to each well. Plates are then incubated for a further 2 hours at room temperature in the dark before reading on an EnVision™ plate reader with AlphaScreen HTS turbo option module and AlphaScreen settings. Data is analysed using ActivityBase software (IDBS).

SMILES | IC50
N#Cc1cccc(COc2ccc(Br)cc2C(=O)Nc2cccnc2)c1 [Example 15, 5-Bromo-2-{[(3-cyanophenyl)methyl]oxy}-N-3-pyridinylbenzamide] | ≤ 100 nM
O=C(Nc1cccnc1)c1cc(Br)ccc1OCc1cccc(Cl)c1 [Example 13, 5-Bromo-2-{[(3-chlorophenyl)methyl]oxy}-N-3-pyridinylbenzamide] | ≤ 100 nM
CC(C)c1ccc(OCc2ccccc2)c(C(=O)Nc2cccnc2)c1 [Example 1, 5-(1-Methylethyl)-2-[(phenylmethyl)oxy]-N-3-pyridinylbenzamide] | ≤ 100 nM
O=C(Nc1cccnc1)c1cc(Br)ccc1OCc1ccccc1 [Example 2, 5-Bromo-2-[(phenylmethyl)oxy]-N-3-Pyridinylbenzamide] | ≤ 100 nM
N#Cc1ccc(OCc2ccccc2)c(C(=O)Nc2cccnc2)c1 [Example 8, 5-Cyano-2-[(phenylmethyl)oxy]-N-3-pyridinylbenzamide] | ≤ 100 nM

Continued, values first:

IC50 | SMILES
≤ 100 nM | O=C(Nc1cccnc1)c1cc(N2CCCCC2)ccc1OCc1ccccc1 [Example 33, 2-[(Phenylmethyl)oxy]-5-(1-piperidinyl)-N-3-pyridinylbenzamide]
≤ 100 nM | CN1CCN(c2ccc(OCc3ccccc3)c(C(=O)Nc3cccnc3)c2)CC1 [Example 32, 5-(4-Methyl-1-piperazinyl)-2-[(phenylmethyl)oxy]-N-3-pyridinylbenzamide]
≤ 100 nM | CN(C)CCOc1ccc(OCc2ccccc2)c(C(=O)Nc2cccnc2)c1 [Example 30, 5-{[2-(Dimethylamino)ethyl]oxy}-2-[(phenylmethyl)oxy]-N-3-pyridinylbenzamide]
≤ 100 nM | CN1CCC(Oc2ccc(OCc3ccccc3)c(C(=O)Nc3cccnc3)c2)CC1 [Example 31, 5-[(1-Methyl-4-piperidinyl)oxy]-2-[(phenylmethyl)oxy]-N-3-pyridinylbenzamide]
≤ 100 nM | O=C(Nc1cccnc1)c1cc(O)ccc1OCc1ccccc1 [Example 29, 5-Hydroxy-2-[(phenylmethyl)oxy]-N-3-pyridinylbenzamide]
